From ChEMBL document CHEMBL1145886, “Design, synthesis, and biological evaluation of 6-substituted-3-(4-methanesulfonylphenyl)-4-phenylpyran-2-ones: a novel class of diarylheterocyclic selective cyclooxygenase-2 inhibitors” (J Med Chem, 2003)
Activity calls are given as the source filed them. The rule behind the calls is not given here.

Each compound was assayed on Rattus norvegicus (assay: Analgesic activity was determined in rat using 4% sodium chloride-induced abdominal constriction assay at a duration of 30 min following a 1 mg/kg intraperitoneal dose). Settings: Abdomen, ip, 0.5 h.
Format: functional

SMILES	inhibition in vivo at 1 mg/kg
CC(C)c1cc(-c2ccc(F)cc2)c(-c2ccc(S(C)(=O)=O)cc2)c(=O)o1	50.9%
Cc1ccc(-c2cc(C(F)(F)F)nn2-c2ccc(S(N)(=O)=O)cc2)cc1 [CELECOXIB]	31.7%
Cc1cc(-c2ccccc2)c(-c2ccc(S(C)(=O)=O)cc2)c(=O)o1	57%
CCSc1cc(-c2ccccc2)c(-c2ccc(S(C)(=O)=O)cc2)c(=O)o1	81%
COc1cc(-c2ccccc2)c(-c2ccc(S(C)(=O)=O)cc2)c(=O)o1	55.2%
CC(C)c1cc(-c2ccccc2)c(-c2ccc(S(C)(=O)=O)cc2)c(=O)o1	67.8%
CCSc1cc(-c2ccc(F)cc2)c(-c2ccc(S(C)(=O)=O)cc2)c(=O)o1	54.3%
COc1cc(-c2ccc(F)cc2)c(-c2ccc(S(C)(=O)=O)cc2)c(=O)o1	49%
CCOc1cc(-c2ccc(F)cc2)c(-c2ccc(S(C)(=O)=O)cc2)c(=O)o1	42.8%
CC(C)(C)Oc1cc(-c2ccccc2)c(-c2ccc(S(C)(=O)=O)cc2)c(=O)o1	73.8%

What follows are compounds tested on Rattus norvegicus (assay: In vivo antiinflammatory activity against rat carrageenan-induced foot paw edema model at 3 hr following a 1 mg/kg oral dose). Settings: not given.
Format: functional

SMILES	inhibition in vivo at 1 mg/kg
CC(C)c1cc(-c2ccc(F)cc2)c(-c2ccc(S(C)(=O)=O)cc2)c(=O)o1	35.8%
Cc1ccc(-c2cc(C(F)(F)F)nn2-c2ccc(S(N)(=O)=O)cc2)cc1 [CELECOXIB]	79.9%
Cc1cc(-c2ccccc2)c(-c2ccc(S(C)(=O)=O)cc2)c(=O)o1	12.5%
CCSc1cc(-c2ccccc2)c(-c2ccc(S(C)(=O)=O)cc2)c(=O)o1	9.2%
CC(C)c1cc(-c2ccccc2)c(-c2ccc(S(C)(=O)=O)cc2)c(=O)o1	9.8%
CCSc1cc(-c2ccc(F)cc2)c(-c2ccc(S(C)(=O)=O)cc2)c(=O)o1	25.8%
COc1cc(-c2ccc(F)cc2)c(-c2ccc(S(C)(=O)=O)cc2)c(=O)o1	30.6%
CCOc1cc(-c2ccc(F)cc2)c(-c2ccc(S(C)(=O)=O)cc2)c(=O)o1	32.7%
CC(C)(C)Oc1cc(-c2ccccc2)c(-c2ccc(S(C)(=O)=O)cc2)c(=O)o1	29%
CC(C)Cc1ccc(C(C)C(=O)O)cc1 (stereo not drawn) [IBUPROFEN]	56.2%

The compounds below were run against T1, Prostaglandin G/H synthase 1 (Ovis aries, UniProt P05979). Settings: not given.
T1 sequence (P05979 whole entry): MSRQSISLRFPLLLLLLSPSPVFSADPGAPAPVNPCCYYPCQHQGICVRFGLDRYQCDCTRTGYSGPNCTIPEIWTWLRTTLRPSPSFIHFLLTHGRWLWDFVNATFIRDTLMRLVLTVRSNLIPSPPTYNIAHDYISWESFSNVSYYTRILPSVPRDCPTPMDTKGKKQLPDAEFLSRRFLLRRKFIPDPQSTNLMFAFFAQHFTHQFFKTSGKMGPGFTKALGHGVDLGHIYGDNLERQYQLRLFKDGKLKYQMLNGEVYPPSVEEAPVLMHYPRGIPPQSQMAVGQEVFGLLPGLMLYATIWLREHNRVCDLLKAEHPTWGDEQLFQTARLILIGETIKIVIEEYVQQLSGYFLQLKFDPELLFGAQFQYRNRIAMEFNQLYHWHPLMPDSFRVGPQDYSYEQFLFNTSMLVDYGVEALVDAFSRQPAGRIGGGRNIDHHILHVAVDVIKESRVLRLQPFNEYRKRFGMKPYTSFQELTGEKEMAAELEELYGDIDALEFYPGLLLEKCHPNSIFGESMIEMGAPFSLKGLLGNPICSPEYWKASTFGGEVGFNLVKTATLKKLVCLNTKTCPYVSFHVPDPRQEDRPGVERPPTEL

SMILES	IC50
CC(C)c1cc(-c2ccc(F)cc2)c(-c2ccc(S(C)(=O)=O)cc2)c(=O)o1	15.7 µM
CS(=O)(=O)c1ccc(-c2c(-c3ccc(F)cc3)cc(OCc3ccc(Cl)cc3)oc2=O)cc1	301 µM
CCCSc1cc(-c2ccccc2)c(-c2ccc(S(C)(=O)=O)cc2)c(=O)o1	> 100 µM
Cc1cc(-c2ccc(F)cc2)c(-c2ccc(S(C)(=O)=O)cc2)c(=O)o1	201 µM
CC(C)(C)Oc1cc(-c2ccc(F)cc2)c(-c2ccc(S(C)(=O)=O)cc2)c(=O)o1	68.5 µM
CS(=O)(=O)c1ccc(-c2c(-c3ccccc3)cc(OCc3ccc(Cl)cc3)oc2=O)cc1	50.7 µM
CCSc1cc(-c2ccc(F)cc2)c(-c2ccc(S(C)(=O)=O)cc2)c(=O)o1	> 100 µM
COc1cc(-c2ccc(F)cc2)c(-c2ccc(S(C)(=O)=O)cc2)c(=O)o1	> 1000 µM
CCOc1cc(-c2ccc(F)cc2)c(-c2ccc(S(C)(=O)=O)cc2)c(=O)o1	288 µM
CC(C)Oc1cc(-c2ccc(F)cc2)c(-c2ccc(S(C)(=O)=O)cc2)c(=O)o1	560 µM
CC(C)(C)Oc1cc(-c2ccccc2)c(-c2ccc(S(C)(=O)=O)cc2)c(=O)o1	> 100 µM
CC(C)COc1cc(-c2ccccc2)c(-c2ccc(S(C)(=O)=O)cc2)c(=O)o1	3.1 µM
CC(C)COc1cc(-c2ccc(F)cc2)c(-c2ccc(S(C)(=O)=O)cc2)c(=O)o1	42.6 µM

Each compound was assayed on Rattus norvegicus (assay: In vivo antiinflammatory activity against rat carrageenan-induced foot paw edema model at 5 hr following a 1 mg/kg oral dose). Settings: not given.
Format: functional

SMILES	inhibition in vivo at 1 mg/kg
CC(C)c1cc(-c2ccc(F)cc2)c(-c2ccc(S(C)(=O)=O)cc2)c(=O)o1	69.1%
Cc1ccc(-c2cc(C(F)(F)F)nn2-c2ccc(S(N)(=O)=O)cc2)cc1 [CELECOXIB]	58.2%
Cc1cc(-c2ccccc2)c(-c2ccc(S(C)(=O)=O)cc2)c(=O)o1	23.5%
CCSc1cc(-c2ccccc2)c(-c2ccc(S(C)(=O)=O)cc2)c(=O)o1	19.5%
COc1cc(-c2ccccc2)c(-c2ccc(S(C)(=O)=O)cc2)c(=O)o1	22%
CC(C)c1cc(-c2ccccc2)c(-c2ccc(S(C)(=O)=O)cc2)c(=O)o1	19.5%
CCSc1cc(-c2ccc(F)cc2)c(-c2ccc(S(C)(=O)=O)cc2)c(=O)o1	16.8%
COc1cc(-c2ccc(F)cc2)c(-c2ccc(S(C)(=O)=O)cc2)c(=O)o1	30%
CCOc1cc(-c2ccc(F)cc2)c(-c2ccc(S(C)(=O)=O)cc2)c(=O)o1	67.8%
CC(C)(C)Oc1cc(-c2ccccc2)c(-c2ccc(S(C)(=O)=O)cc2)c(=O)o1	30.1%
CC(C)Cc1ccc(C(C)C(=O)O)cc1 (stereo not drawn) [IBUPROFEN]	41.5%

Each compound was assayed on Rattus norvegicus (assay: Analgesic activity was determined in rat using 4% sodium chloride-induced abdominal constriction assay at a duration of 60 min following a 1 mg/kg intraperitoneal dose). Settings: Abdomen, ip, 1 h.
Format: functional

SMILES	inhibition in vivo at 1 mg/kg
CC(C)c1cc(-c2ccc(F)cc2)c(-c2ccc(S(C)(=O)=O)cc2)c(=O)o1	20.7%
Cc1ccc(-c2cc(C(F)(F)F)nn2-c2ccc(S(N)(=O)=O)cc2)cc1 [CELECOXIB]	62%
Cc1cc(-c2ccccc2)c(-c2ccc(S(C)(=O)=O)cc2)c(=O)o1	60.4%
CCSc1cc(-c2ccccc2)c(-c2ccc(S(C)(=O)=O)cc2)c(=O)o1	77.4%
COc1cc(-c2ccccc2)c(-c2ccc(S(C)(=O)=O)cc2)c(=O)o1	83.4%
CC(C)c1cc(-c2ccccc2)c(-c2ccc(S(C)(=O)=O)cc2)c(=O)o1	56.9%
CCSc1cc(-c2ccc(F)cc2)c(-c2ccc(S(C)(=O)=O)cc2)c(=O)o1	66%
COc1cc(-c2ccc(F)cc2)c(-c2ccc(S(C)(=O)=O)cc2)c(=O)o1	72.6%
CCOc1cc(-c2ccc(F)cc2)c(-c2ccc(S(C)(=O)=O)cc2)c(=O)o1	75.7%
CC(C)(C)Oc1cc(-c2ccccc2)c(-c2ccc(S(C)(=O)=O)cc2)c(=O)o1	80.9%

What follows are compounds tested on Rattus norvegicus (assay: In vivo antiinflammatory activity against rat carrageenan-induced foot paw edema model at 3 hr following a 1 mg/kg oral dose; NA is inactive). Settings: at 1 mg/kg.
Format: functional, organism-based
Design: dose 1 mg/kg

SMILES	inhibition
COc1cc(-c2ccccc2)c(-c2ccc(S(C)(=O)=O)cc2)c(=O)o1	inactive

These compounds were tested against T2, Prostaglandin G/H synthase 2 (Bos taurus, UniProt O62698). Settings: not given.
T2 sequence (O62698 whole entry): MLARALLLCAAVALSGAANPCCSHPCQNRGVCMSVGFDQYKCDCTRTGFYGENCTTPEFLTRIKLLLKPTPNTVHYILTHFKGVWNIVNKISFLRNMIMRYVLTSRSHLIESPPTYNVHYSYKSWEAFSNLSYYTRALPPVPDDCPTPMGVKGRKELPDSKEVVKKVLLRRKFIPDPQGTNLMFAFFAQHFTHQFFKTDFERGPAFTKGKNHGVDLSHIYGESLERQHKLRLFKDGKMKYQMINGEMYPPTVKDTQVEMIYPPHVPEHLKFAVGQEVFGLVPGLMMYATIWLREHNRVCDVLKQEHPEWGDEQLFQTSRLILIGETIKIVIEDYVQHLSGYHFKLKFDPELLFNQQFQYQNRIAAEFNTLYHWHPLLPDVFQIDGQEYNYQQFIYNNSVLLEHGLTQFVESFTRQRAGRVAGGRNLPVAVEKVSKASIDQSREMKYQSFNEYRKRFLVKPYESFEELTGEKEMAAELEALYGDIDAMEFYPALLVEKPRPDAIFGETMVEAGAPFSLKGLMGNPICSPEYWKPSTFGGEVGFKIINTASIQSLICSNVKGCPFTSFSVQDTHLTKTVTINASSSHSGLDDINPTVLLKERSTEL

SMILES	IC50
CC(C)c1cc(-c2ccc(F)cc2)c(-c2ccc(S(C)(=O)=O)cc2)c(=O)o1	13.6 µM
CS(=O)(=O)c1ccc(-c2c(-c3ccc(F)cc3)cc(OCc3ccc(Cl)cc3)oc2=O)cc1	53.3 µM
CCCSc1cc(-c2ccccc2)c(-c2ccc(S(C)(=O)=O)cc2)c(=O)o1	> 100 µM
Cc1cc(-c2ccc(F)cc2)c(-c2ccc(S(C)(=O)=O)cc2)c(=O)o1	125 µM
CC(C)(C)Oc1cc(-c2ccc(F)cc2)c(-c2ccc(S(C)(=O)=O)cc2)c(=O)o1	20.4 µM
CS(=O)(=O)c1ccc(-c2c(-c3ccccc3)cc(OCc3ccc(Cl)cc3)oc2=O)cc1	416 µM
CCSc1cc(-c2ccc(F)cc2)c(-c2ccc(S(C)(=O)=O)cc2)c(=O)o1	1.44 µM
COc1cc(-c2ccc(F)cc2)c(-c2ccc(S(C)(=O)=O)cc2)c(=O)o1	59.5 µM
CCOc1cc(-c2ccc(F)cc2)c(-c2ccc(S(C)(=O)=O)cc2)c(=O)o1	0.1 µM
CC(C)Oc1cc(-c2ccc(F)cc2)c(-c2ccc(S(C)(=O)=O)cc2)c(=O)o1	83.6 µM
CC(C)(C)Oc1cc(-c2ccccc2)c(-c2ccc(S(C)(=O)=O)cc2)c(=O)o1	2.7 µM
CC(C)COc1cc(-c2ccccc2)c(-c2ccc(S(C)(=O)=O)cc2)c(=O)o1	1.8 µM
CC(C)COc1cc(-c2ccc(F)cc2)c(-c2ccc(S(C)(=O)=O)cc2)c(=O)o1	35 µM
